One assay deals with washed human platelets. The experiment in a line: I-BOP evoked human platelet aggregation in vitro with washed platelets. Type of assay: cell-based. To be noted: washed human platelets, 5 ng I-BOP; compounds are methyl esters; read-out: IC50, inhibition of I-BOP evoked human platelet aggregation. The method, then: Washed human platelets were prepared as previously described (Pace-Asciak et al., 2002). The aggregation of platelets was carried out in a conventional 4-well aggregometer with stirring of the suspension maintained at 37° C. The platelet suspension was caused to aggregate with a thromboxane stable analog, I-BOP. The isolated enantiomer compounds and their respective racemates, PBT-3 and PBT-4, were added at various concentrations to cuvettes containing 375×10^6 platelets/ml, 1 min prior to the addition of 5 ng I-BOP (Cayman Chemicals, Ann Arbor, Mich.). Aggregation was monitored for an additional 5 min.

For assay [1], the system named is human leukemic K562 cells. The experiment in a line: Inhibition of 3H-methyl thymidine incorporation (cell proliferation) in K562 cells. Type of assay: cell-based. To be noted: 6 h treatment; compounds are methyl esters. On the procedure:
The human leukemic K562 cell line was established as previously reported (Qiao et al., 2003). Cells were maintained as suspension cultures in RPMI 1640 medium supplemented with 100 1.1/ml penicillin G, 100 μg/ml streptomycin, 10% (v/v) […] in a humidified atmosphere of 5% CO2 at 37° C. Cell viability was assessed by the exclusion of Trypan blue. Incorporation of ^3H-methyl thymidine into cell DNA was used as an assay for cell proliferation. Cells ([…]) were starved for 12 h, and were subsequently treated with the test compounds. Compounds A, B, C and D were made up at various concentrations in DMSO ([…] A, B, C and D. Concentrations were doubled for racemates PBT-3 and PBT-4) and 1 of these solutions was added/ml volume of cells. Cells were suspended in RPMI 1640 medium. At 6 h post-treatment at 37° C. the cells were fixed and denatured essentially as described in Qiao et al. (2003), harvested and passed through Whatman GF/C glass filters. The filters were washed and counted for radioactivity.

Assay [2] concerns the target T1, Ga14-DBD-PPAR gamma-LBD fusion protein (Homo sapiens, UniProt P37231).
T1 construct: expressed in transfected cells; host or cells: mouse embryonic fibroblasts (MEFs) or ME3 cells
T1 sequence (P37231 238-503 limits assumed): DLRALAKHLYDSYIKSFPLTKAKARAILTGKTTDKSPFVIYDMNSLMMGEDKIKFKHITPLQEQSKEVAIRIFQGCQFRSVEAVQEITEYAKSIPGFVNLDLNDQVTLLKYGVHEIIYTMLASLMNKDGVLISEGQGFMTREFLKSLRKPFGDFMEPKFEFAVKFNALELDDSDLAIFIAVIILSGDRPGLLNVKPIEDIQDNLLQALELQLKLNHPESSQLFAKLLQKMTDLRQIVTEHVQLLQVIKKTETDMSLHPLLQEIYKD
The experiment in a line: PPAR gamma transactivation assay (Gal4-PPAR gamma LBD / UASx4-TK-luc reporter). Type of assay: cell-based. The source says:
The UASx4-TK-luc reporter construct (where UAS refers to “upstream activator sequence”) contains four Ga14-responsive elements. The plasmid Ga14-PPAR gammaLBD encodes a Ga14-DBD-PPAR gamma-LBD fusion protein (i.e. the DNA-binding domain, DBD, of Ga14 fused to the ligand-binding domain, LBD, of PPAR gamma) capable of transactivating the UASx4-TK-luc reporter plasmid by binding to the UAS. The CMV-beta-galactosidase plasmid (where CMV is cytomegalovirus) was used for normalization of experimental values.
The cells were replated, typically in 24 well plates, so that at the time of transfection the cells were 50-70% confluent.
Briefly, per well in a 24 well plate, UASx4TKIuc (0.2 microg) Ga14-PPAR gammaLBD (or pM-hPPAR gamma-LBD; 0.1 microg) and CMV-beta-galactosidase (0.05 microg) in 30 μL DMEM (free of serum and antibiotics) was mixed with 30 microL DMEM (free of serum and antibiotics) containing 1 microL metafectenein. The mixture was incubated at room temperature for 20 min to allow formation of nucleic acid-lipid complexes and then approximately 60 micros was added to each well containing the 50-70% confluent cells. […] Cells were harvested after 12-24 hours and luciferase and beta-galactosidase activities were measured according to standard protocols.
Each experiment was carried out with triplicate samples with 0.1, 1 or 10 microM racemate or purified enantiomer.

In assay [3] the test system is Caspase-3 cleavage in K562 cells. The experiment in a line: Caspase-3 cleavage in K562 cells, Western blot. To be noted: 10 uM, 6 h, FIG. 7. Type of assay: cell-based, human. On the procedure:
Cell culture: Human leukemia K562 cells, obtained from ATCC (American Type Culture Collection), were maintained in RPMI 1640 medium containing 100 units/ml penicillin G, 100 μg/ml streptomycin, 10% (v/v) fetal calf serum in a humidified atmosphere with 5% CO2 at 37° C. The ability of the cells to exclude trypan Blue dye was used to assess cell viability.
Cell treatment: K562 cells were stored in 0.5% FBS for 15 min before the experiment. The cells, 6×10^5, were treated with DMSO as vehicle, or with PBT-3, PBT-4, or compounds A, B, C and D at 10 uM/dish (8 ml). Gleevec™ (STI) was used at 5 μM/dish. All experiments were without FBS and treatment lasted 6 h at 37° C. Treatment was terminated by washing the cells with ice-cold PBS buffer by centrifugation at 500×g for 5 min. Cells were lysed in buffer containing 20 mM Tris-HCl buffer, pH 7.4, 150 NaCl, 1 mM EDTA, 1 mM EGTA, 1% Triton X-100 2.5 mM sodium pyrophosphate, 1 mM beta-glycerophosphate, 1 mM sodium orthovanadate, 1 mM PMSF and 1 μM leupeptin/1 μM Aprotinin/1 μM pepstain A, on ice for 30 min. The lysates were clarified by centrifugation at 15,000×g for 15 min at 4° C. Lysates were subjected to protein assay (BCA, Pierce) and kept at −80° C.
Western blot: Thirty micrograms of protein from each sample were taken, and SDS-PAGE sample loading buffer was added. The mixture was boiled for 5 min. After centrifugation, the samples were loaded onto 15% SDS-PAGE gel and the gel was run (BioRad Protein II) for 2-3 h at 20 mA. The protein was transferred to a Trans-blot Nitrocellulose membrane (Millipore). Protein bands on the membranes were checked visually with Ponceau S-staining to ensure equivalent protein load/transfer comparing different samples. Membranes were blocked with 5% non-fat dry milk in PBS containing 0.5% Tween-20 for 1 h at room temperature, and then incubated with 1:1000 dilution of anti-caspase-3 antibody (BD Transduction Laboratories, Mississauga, Canada) overnight at 4° C. Secondary antibody of horseradish peroxidase anti-mouse antibody was used at 1:2000 dilution. Bound antibodies were detected by using enhanced chemilluminescence (ECL kit, Amersham Pharmacia Biotech) and the membranes were exposed to Hyper film for ECL detection. The same membrane was stripped by placing in buffer containing 62.5 mM Tris-HCl, pH 6.8/2% SDS/100 mM beta-mercaptoethanol at 50° C. for 30 min. The membrane was washed 3 times with PBS containing 0.5% Tween-20. The membrane was blocked by PBS buffer containing 0.5% Tween-20 and 5% skim milk. The anti-tubulin antibody (Santa Cruz, Calif.) was diluted 1:1000 and membrane analyzed by ECL as described above.
(In general: Immunoblotting shows a protein as a band on a membrane.)

“Also recorded” adds a separate entry of the source.

On to `CCCCC/C=C\CC1CC1C(O)/C=C\C/C=C\CCCC(=O)OC` (stereo not drawn) [Compound D, 10S-hydroxy-11S,12S-cyclopropyl-eicosa-5Z,8Z,14Z-trienoic acid methyl ester], for which the half-inhibitory concentration (IC50) (in general, the concentration at which inhibition is half-maximal) turned out to be 0.082 ± 0.018 µM in the assay on washed human platelets and 5.2 µM in assay [1]. Further, the “PPAR gamma transactivation, result in words” value in assay [2] is “more effectively than Compound C; also recorded: improved PPAR gamma transactivating activity over Compound C; also recorded: higher fold PPAR gamma transactivation than compound C”. Further, the “PPAR Activation as % of positive control (Avandia)” value (from here on “PPAR Activation as %”) in assay [2] (Experiment 1, 0.1 microM) was 14 +/− 3 % of positive control (Avandia); in assay [2] (Experiment 1, 1 microM), 17 +/− 3 % of positive control (Avandia); in assay [2] (Experiment 1, 10 microM), 69 +/− 15 % of positive control (Avandia); in assay [2] (Experiment 2, 0.1 microM), 4 +/− 1 % of positive control (Avandia); in assay [2] (Experiment 2, 1 microM) it was 5 +/− 1 % of positive control (Avandia); in assay [2] (Experiment 2, 10 microM), 18 +/− 1 % of positive control (Avandia). Moreover, the “PPAR Activation as %” value is reported as 7 +/− 2 % of positive control (Avandia) in assay [2] (Experiment 3, 0.1 microM); 8 +/− 1 % of positive control (Avandia) in assay [2] (Experiment 3, 1 microM); 33 +/− 7 % of positive control (Avandia) in assay [2] (Experiment 3, 10 microM). Moreover, in assay [3], the “Cleavage of caspase-3” value is recorded as “increased cleavage of caspase-3”.
With `CCCCC/C=C\CC1CC1C(O)/C=C\C/C=C\CCCC(=O)OC` (stereo not drawn) [PBT-3, 10-hydroxy-11,12-cyclopropyl-eicosa-5Z,8Z,14Z-trienoic acid methyl ester, reference compound], the results for the IC50 (in the assay on washed human platelets; in assay [1]) were 0.054 ± 0.009 µM and 4.6 µM, respectively. Further, the “PPAR Activation as %” value is recorded as 18 +/− 1 % of positive control (Avandia) in assay [2] (10 microM racemate, Table 3); 11 +/− 2 % of positive control (Avandia) in assay [2] (Experiment 1, 0.1 microM); 15 +/− 2 % of positive control (Avandia) in assay [2] (Experiment 1, 1 microM); 42 +/− 8 % of positive control (Avandia) in assay [2] (Experiment 1, 10 microM); 4 +/− 1 % of positive control (Avandia) in assay [2] (Experiment 2, 0.1 microM); 8 +/− 1 % of positive control (Avandia) in assay [2] (Experiment 2, 1 microM). Further, the “PPAR Activation as %” value in assay [2] (Experiment 2, 10 microM) was 41 +/− 5 % of positive control (Avandia); in assay [2] (Experiment 3, 0.1 microM), 8 +/− 2 % of positive control (Avandia); in assay [2] (Experiment 3, 1 microM), 18 +/− 4 % of positive control (Avandia); in assay [2] (Experiment 3, 10 microM) it was 32 +/− 4 % of positive control (Avandia). Further, the “Cleavage of caspase-3” value in assay [3] was “increased cleavage of caspase-3”.
For the compound `CCCCC/C=C\CC1CC1C(O)/C=C\C/C=C\CCCC(=O)OC` (stereo not drawn) [PBT-4, 10-hydroxy-11,12-cyclopropyl-eicosa-5Z,8Z,14Z-trienoic acid methyl ester, reference compound], the results for the IC50 (in the assay with washed human platelets; in assay [1]) were 0.079 ± 0.017 µM and 4.9 µM, respectively. For the same compound, the “PPAR Activation as %” value in assay [2] (10 microM racemate, Table 3) is reported as 19 +/− 1 % of positive control (Avandia); in assay [2] (Experiment 1, 0.1 microM) it was 13 +/− 2 % of positive control (Avandia); in assay [2] (Experiment 1, 1 microM), 13 +/− 3 % of positive control (Avandia); in assay [2] (Experiment 1, 10 microM), 60 +/− 9 % of positive control (Avandia); in assay [2] (Experiment 2, 0.1 microM), 4 +/− 1 % of positive control (Avandia); in assay [2] (Experiment 2, 1 microM) it was 7 +/− 1 % of positive control (Avandia). Also, the “PPAR Activation as %” value is 32 +/− 1 % of positive control (Avandia) in assay [2] (Experiment 2, 10 microM); 7 +/− 1 % of positive control (Avandia) in assay [2] (Experiment 3, 0.1 microM); 15 +/− 7 % of positive control (Avandia) in assay [2] (Experiment 3, 1 microM); 33 +/− 8 % of positive control (Avandia) in assay [2] (Experiment 3, 10 microM). In addition, in assay [3], the “Cleavage of caspase-3” value was “increased cleavage of caspase-3”.

The values above are taken from patent publication US8710252B2, “Hepodxilin analog enantiomers” (priority 2006, dated 2014).
